Results: patent US20230227411A1, “Benzimidazole Derivatives” (Hoffmann-La Roche Inc., priority 2020, published 2023)

Target: T1, human cGAS (residues 161-522) (Homo sapiens, UniProt Q8N884)
T1 construct: Recombinantly expressed purified human cGAS (residues 161-522) was used at 25 nM; made in house
Experiment: Malachite Green assay to measure cGAS activity
Format: biochemical
Conditions: coupled enzymatic assay, phosphate detection by Malachite Green; 25 nM cGAS, 80 μM ATP, 80 μM GTP, 100 nM ISD, 4 hour at RT
Method: Malachite Green Assay to Measure cGAS Activity
Compounds were tested for cGAS inhibition in a coupled enzymatic assay based on Phosphate detection by Malachite Green. Final assay conditions were 20 mM TRIS pH 7.5 (Applichem), 5 mM MgCl2 (Sigma) and 0.01% BSA (Sigma) supplemented with 80 μM ATP (Sigma), 80 μM GTP (Sigma) and 100 nM Interferon Stimulating DNA (ISD) (Microsynth). Recombinantly expressed purified human cGAS (residues 161-522) was used at 25 nM.
All compounds were prepared as 10 mM stock solutions in DMSO and a 16 pt dilution series in DMSO with a dilution factor of 2.5 was prepared. 1 μL of DMSO dilution series was transferred to 32.3 μL reaction buffer, mixed by pipetting up/down, spun for 1 minute at 3000 rpm and was visually inspected for precipitation. 5 μL of 3-fold enzyme stock solution were transferred to an empty 384-well Black/Clear Flat Bottom Polystyrene NBS (Corning) rows 3-24. Rows 1-2 were filled with assay buffer. Plates were spun 10 seconds at 1000 rpm (164×g). 5 μL of compound intermediate dilution was added and mixed by pipetting up/down to rows 3-24. Rows 1-2 were filled with 3.1% DMSO assay buffer. Plates were spun 10 seconds at 1000 rpm (164×g). 5 μL 3-fold Nucleotide/DNA mix was added to all wells to start the reaction. Plates were spun 10 seconds at 1000 rpm (164×g) and incubated for 4 hour at room temperature (RT) in the dark. 5 μL 4 U/mL PPase (Sigma) were added to all wells. Plates spun 10 seconds at 1000 rpm (164×g). 10 μL BioMol green Solution (Enzo Life Sciences) was added to all wells. Plates spun 10 seconds at 1000 rpm (164×g) and incubated 30 minutes at RT in the dark. Absorbance data was collected 620 nm on an EnVision Multilable Reader (Perkin Elmer) and the following measurement settings were used: excitation filter photometric was 620 nm; excitation from the top; measurement height was 1 mm; number of flashes was 30; number of flashes integrated was 1.
All plates are checked for abnormalities and outliers in the Blank Control (no protein, row 1) and the Neutral Control (no compound, row 2) are excluded using the 3*SD rule. Data was normalized to 0 and 100% by Blank and Neutral Control and each curve was fitted and judged using the 4 parameter logistic equation to determine the IC50 for cGAS inhibition.
Table 1 provides IC50 values (μM) for cGAS inhibition obtained for particular examples of the present invention as measured by the above-described assay.

T1 sequence (Q8N884 161-522): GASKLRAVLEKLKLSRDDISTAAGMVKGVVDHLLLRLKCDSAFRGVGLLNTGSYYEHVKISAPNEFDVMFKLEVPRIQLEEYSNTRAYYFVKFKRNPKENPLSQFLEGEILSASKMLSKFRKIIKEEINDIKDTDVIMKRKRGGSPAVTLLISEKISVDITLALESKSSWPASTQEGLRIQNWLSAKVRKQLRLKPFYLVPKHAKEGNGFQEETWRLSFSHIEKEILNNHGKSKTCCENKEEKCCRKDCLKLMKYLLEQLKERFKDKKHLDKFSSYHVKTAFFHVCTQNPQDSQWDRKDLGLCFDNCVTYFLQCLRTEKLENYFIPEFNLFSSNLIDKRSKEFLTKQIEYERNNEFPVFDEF

| SMILES | IC50 [nM] |
| --- | --- |
| CC(=O)NCCCn1cnc2cc(-c3ccc(C)cc3Cl)cc(C(=O)O)c21 [Example 2, 1-(3-Acetamidopropyl)-5-(2-chloro-4-methylphenyl)-1H-benzo[d]imidazole-7-carboxylic acid] | 2340 |
| Cc1ccc(-c2cc(C(=O)O)c3c(c2)ncn3Cc2cccc(Cl)c2)c(Cl)c1 [Example 4, 5-(2-Chloro-4-methylphenyl)-1-(3-chlorobenzyl)-1H-benzo[d]imidazole-7-carboxylic acid] | 2590 |
| Cc1ccc(-c2cc(C(=O)O)c3c(c2)ncn3Cc2cccnc2)c(Cl)c1 [Example 6, 5-(2-Chloro-4-methylphenyl)-1-(pyridin-3-ylmethyl)-1H-benzo[d]imidazole-7-carboxylic acid] | 2070 |
| Cc1ccc(-c2cc(C(=O)O)c3c(c2)ncn3CCN(C)C)c(Cl)c1 [Example 8, 5-(2-Chloro-4-methylphenyl)-1-(2-(dimethylamino)ethyl)-1H-benzo[d]imidazole-7-carboxylic acid] | 2020 |
| COCCn1cnc2cc(-c3ccc(C)cc3Cl)cc(C(=O)O)c21 [Example 9, 5-(2-Chloro-4-methylphenyl)-1-(2-methoxyethyl)-1H-benzo[d]imidazole-7-carboxylic acid] | 3040 |
| Cc1ccc(-c2cc(C(=O)O)c3c(c2)ncn3C2CC2)c(Cl)c1 [Example 10, 5-(2-Chloro-4-methylphenyl)-1-cyclopropyl-1H-benzo[d]imidazole-7-carboxylic acid] | 4790 |
| CCn1cnc2cc(-c3ccc(C)cc3Cl)cc(C(=O)O)c21 [Example 12, 5-(2-Chloro-4-methylphenyl)-1-ethyl-1H-benzo[d]imidazole-7-carboxylic acid] | 2810 |
| Cc1ccc(-c2cc(C(=O)O)c3c(c2)ncn3CC(F)(F)F)c(Cl)c1 [Example 13, 5-(2-Chloro-4-methylphenyl)-1-(2,2,2-trifluoroethyl)-1H-benzo[d]imidazole-7-carboxylic acid] | 3290 |
| Cc1ccc(-c2cc(C(=O)O)c3c(c2)ncn3Cc2ccccc2)c(Cl)c1 [Example 15, 1-Benzyl-5-(2-chloro-4-methylphenyl)-1H-benzo[d]imidazole-7-carboxylic acid] | 2410 |

Now those with a lower IC50, led by results:

| IC50 [nM] | SMILES |
| --- | --- |
| 1120 | Cc1ccc(-c2cc(C(=O)O)c3c(c2)ncn3-c2ccccc2)c(Cl)c1 [Example 1, 5-(2-Chloro-4-methylphenyl)-1-phenyl-1H-benzo[d]imidazole-7-carboxylic acid] |
| 1340 | Cc1ccc(-c2cc(C(=O)O)c3c(c2)ncn3CCCNS(C)(=O)=O)c(Cl)c1 [Example 3, 5-(2-Chloro-4-methylphenyl)-1-(3-(methylsulfonamido)propyl)-1H-benzo[d]imidazole-7-carboxylic acid] |
| 870 | Cc1ccc(-c2cc(C(=O)O)c3c(c2)ncn3Cc2ccncc2)c(Cl)c1 [Example 5, 5-(2-Chloro-4-methylphenyl)-1-(pyridin-4-ylmethyl)-1H-benzo[d]imidazole-7-carboxylic acid] |
| 1760 | Cc1ccc(-c2cc(C(=O)O)c3c(c2)ncn3Cc2ccccn2)c(Cl)c1 [Example 7, 6-(2-Chloro-4-methylphenyl)-3-(pyridin-2-ylmethyl)benzimidazole-4-carboxylic acid] |
| 1930 | CCn1cnc2cc(-c3cc(F)c(C)cc3Cl)cc(C(=O)O)c21 [Example 11, 5-(2-Chloro-5-fluoro-4-methylphenyl)-1-ethyl-1H-benzo[d]imidazole-7-carboxylic acid] |
| 1860 | Cc1ccc(-c2cc(C(=O)O)c3c(c2)ncn3CCc2ccccc2)c(Cl)c1 [Example 14, 5-(2-Chloro-4-methylphenyl)-1-phenethyl-1H-benzo[d]imidazole-7-carboxylic acid] |
